Laboratory results from US7919529B2, “δ-amino-γ-hydroxy-ω-aryl-alkanoic acid amides” (Novartis AG, priority 2003, dated 2011).

Target: T1, Recombinant human renin (Homo sapiens, UniProt P00797)
T1 construct: made in house; host or cells: Chinese Hamster Ovary cells
T1 sequence (P00797 67-406): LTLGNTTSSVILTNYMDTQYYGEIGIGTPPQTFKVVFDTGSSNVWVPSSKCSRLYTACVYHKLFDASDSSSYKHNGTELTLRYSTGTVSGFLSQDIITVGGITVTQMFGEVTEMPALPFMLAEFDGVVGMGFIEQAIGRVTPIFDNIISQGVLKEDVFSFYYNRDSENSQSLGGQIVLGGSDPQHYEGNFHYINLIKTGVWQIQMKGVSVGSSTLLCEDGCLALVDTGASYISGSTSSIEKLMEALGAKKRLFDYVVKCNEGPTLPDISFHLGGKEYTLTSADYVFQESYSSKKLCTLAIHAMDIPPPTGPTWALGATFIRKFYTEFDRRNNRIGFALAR
Test: FRET assay of renin inhibition
Assay type: biochemical
Protocol: Recombinant human renin (expressed in Chinese Hamster Ovary cells and purified using standard methods) at 4 nM concentration is incubated with test compound at various concentrations for 1 h at RT in 0.1 M Tris-HCl buffer, pH 7.4, containing 0.05 M NaCl, 0.5 mM EDTA and 0.05% CHAPS. Synthetic peptide substrate Arg-Glu(EDANS)-Ile-His-Pro-Phe-His-Leu-Val-Ile_His_Thr-Lys(DABCYL)-Arg9 is added to a final concentration of 2 μM and increase in fluorescence is recorded at an excitation wave-length of 340 nm and at an emission wave-length of 485 nm in a microplate spectro-fluorimeter. IC50 values are calculated from percentage of inhibition of renin activity as a function of test compound concentration (Fluorescence Resonance Energy Transfer, FRET, assay).

## COCCCOc1cc(C[C@@H](C[C@H](N)[C@@H](O)C[C@H](C(=O)N[C@@H](C)C2CCCCC2)C(C)C)C(C)C)ccc1OC [Example 29, (2S,4S,5S,7S)-5-Amino-4-hydroxy-2-isopropyl-7-[4-methoxy-3-(3-methoxy-propoxy)-benzyl]-8-methyl-nonanoic acid ((S)-1-cyclohexyl-ethyl)-amide]
  IC50: ~0.3 nM
